# Reference: patent publication US10759751B2, “Substituted spirocyclohexanes as muscarinic M1 receptor and/or M4 receptor agonists” (Heptares Therapeutics Limited, priority 2016, dated 2020)
# Target: T1, human muscarinic M1 receptor (Homo sapiens, UniProt P11229)
# T1 sequence (P11229 1-460): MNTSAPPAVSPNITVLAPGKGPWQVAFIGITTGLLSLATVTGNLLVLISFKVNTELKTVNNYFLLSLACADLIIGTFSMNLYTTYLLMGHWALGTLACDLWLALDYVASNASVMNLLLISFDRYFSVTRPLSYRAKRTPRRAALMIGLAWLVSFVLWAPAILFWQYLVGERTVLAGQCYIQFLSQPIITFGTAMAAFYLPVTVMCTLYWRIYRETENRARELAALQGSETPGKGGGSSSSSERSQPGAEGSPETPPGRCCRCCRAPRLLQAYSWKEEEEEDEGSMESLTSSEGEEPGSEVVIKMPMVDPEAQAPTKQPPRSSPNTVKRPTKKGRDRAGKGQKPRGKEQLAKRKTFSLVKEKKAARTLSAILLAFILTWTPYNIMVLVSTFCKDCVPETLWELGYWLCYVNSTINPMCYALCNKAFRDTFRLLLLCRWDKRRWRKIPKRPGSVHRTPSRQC
# Experiment: Alphascreen Surefire phospho-ERK1/2 functional assay, M1
# Assay type: cell-based
# Settings: CHO cells stably expressing human M1; phospho-ERK1/2; read-out: pEC50 M1 (converted)
# Experimental: Functional assays were performed using the Alphascreen Surefire phospho-ERK1/2 assay (Crouch & Osmond, Comb. Chem. High Throughput Screen, 2008). ERK1/2 phosphorylation is a downstream consequence of both Gq/11 and Gi/o protein coupled receptor activation, making it highly suitable for the assessment of M1, M3 (Gq/11 coupled) and M2, M4 receptors (Gi/o coupled), rather than using different assay formats for different receptor subtypes. CHO cells stably expressing the human muscarinic M1, M2, M3 or M4 receptor were plated (25K/well) onto 96-well tissue culture plates in MEM-alpha+10% dialysed FBS. Once adhered, cells were serum-starved overnight. Agonist stimulation was performed by the addition of 5 μL agonist to the cells for 5 min (37° C.). Media was removed and 50 μL of lysis buffer added. After 15 min, a 4 μL sample was transferred to 384-well plate and 7 μL of detection mixture added. Plates were incubated for 2 h with gentle agitation in the dark and then read on a PHERAstar plate reader.
# pEC50 and Emax figures were calculated from the resulting data for each receptor subtype.
row,Structure (SMILES),EC50 [nM]
1,CCOC(=O)N1CCN(C2CCC(C#N)(c3ccccc3)CC2)CC(O)C1 (mixture of isomers) [3-26 mixture of isomers],40.7

# Same assay, conditions: CHO, read-out: M1 % Emax cf. ACh, CHO cells stably expressing human M1; Emax relative to ACh
row,Structure (SMILES),Emax [%]
1,CCOC(=O)N1CCN(C2CCC(C#N)(c3ccccc3)CC2)CC(O)C1 (mixture of isomers) [3-26 mixture of isomers],85

# Same assay, conditions: M1 versus M4, in words
row,Structure (SMILES),selectivity for the M1 receptor relative to the M4 receptor
1,"CCOC(=O)N[C@H]1CCN(C2CCC(C#N)(c3ccccc3)CC2)C1 (single isomer, unassigned) [Example 1-1]",highly selective for the M1 receptor relative to the M4 receptor
2,"CCOC(=O)N[C@H]1CCN(C2CCC(C#N)(c3cccc(F)c3)CC2)C1 (single isomer, unassigned) [Example 1-3]",highly selective for the M1 receptor relative to the M4 receptor
3,"CCOC(=O)N[C@H]1CCN(C2CCC(C#N)(c3ccc(F)cc3)CC2)C1 (single isomer, unassigned) [Example 1-4]",highly selective for the M1 receptor relative to the M4 receptor
4,"CCOC(=O)N[C@H]1CCN(C2CCC(C#N)(c3cccc(C)c3)CC2)C1 (single isomer, unassigned) [Example 1-9]",highly selective for the M1 receptor relative to the M4 receptor
5,"CCOC(=O)N[C@H]1CCN(C2CCC(C#N)(c3cccc(Cl)c3)CC2)C1 (single isomer, unassigned) [Example 1-10]",highly selective for the M1 receptor relative to the M4 receptor
6,"CCOC(=O)N[C@H]1CCN(C2CCC3(CC2)C(=O)Nc2ccccc23)C1 (single isomer, unassigned) [Example 2-1]",highly selective for the M1 receptor relative to the M4 receptor
7,"CCOC(=O)N[C@H]1CCN(C2CCC3(CC2)C(=O)Nc2c(C)cccc23)C1 (single isomer, unassigned) [Example 2-3]",highly selective for the M1 receptor relative to the M4 receptor
8,"CCOC(=O)N[C@H]1CCN(C2CCC3(CC2)C(=O)Nc2cc(C)ccc23)C1 (single isomer, unassigned) [Example 2-4]",highly selective for the M1 receptor relative to the M4 receptor
9,"CCOC(=O)N[C@H]1CCN(C2CCC3(CC2)C(=O)Nc2ccc(C)cc23)C1 (single isomer, unassigned) [Example 2-5]",highly selective for the M1 receptor relative to the M4 receptor
10,"CCOC(=O)N[C@H]1CCN(C2CCC3(CC2)C(=O)Nc2ccc(OC)cc23)C1 (single isomer, unassigned) [Example 2-10]",highly selective for the M1 receptor relative to the M4 receptor
11,"CCOC(=O)N[C@H]1CCN(C2CCC3(CC2)C(=O)Nc2ncc(Cl)cc23)C1 (single isomer, unassigned) [Example 2-17]",highly selective for the M1 receptor relative to the M4 receptor
12,"CCOC(=O)N[C@H]1CCN(C2CCC3(CC2)C(=O)Nc2cc(F)ccc23)C1 (stereo partly drawn) [Example 2-7, ethyl [(3S)-1-(6′-fluoro-2′-oxo-1′,2′-dihydrospiro[cyclohexane-1,3′-indol]-4-yl)pyrrolidin-3-yl]carbamate]",highly selective for the M1 receptor relative to the M4 receptor
13,"CCOC(=O)N[C@H]1CCN(C2CCC3(CC2)C(=O)Nc2ccc(F)cc23)C1 (stereo partly drawn) [Example 2-8, ethyl [(3S)-1-(5′-fluoro-2′-oxo-1′,2′-dihydrospiro[cyclohexane-1,3′-indol]-4-yl)pyrrolidin-3-yl]carbamate]",highly selective for the M1 receptor relative to the M4 receptor
14,"CCOC(=O)N1CCCN(C2CCC(C#N)(c3ccc(OC)cn3)CC2)CC1 (stereo not shown) [Example 3-19, ethyl 4-[4-(5-methoxypyridin-2-yl)-4-cyanocyclohexyl]-1,4-diazepane-1-carboxylate]",highly selective for the M1 receptor relative to the M4 receptor
